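Cells were grown in 96-well plates and exposed to each compound for 48 hours at five concentrations; endpoints were interpolated linearly between bracketing concentrations, or set to the highest concentration if not reached. Here, GI50 denotes the concentration required for 50% inhibition of growth. Definition used: TGI = concentration required for complete inhibition of growth.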
Legend:
Assay in all cases: NCI anticancer screen, dose series, 48 h
[1] = test system: A549 NSCLC
[2] = test system: BT-549 breast
[3] = test system: HT29 colon
[4] = test system: LOX IMVI melanoma
[5] = test system: NCI-H460 lung
[6] = test system: OVCAR-4 ovarian
[7] = test system: RXF 393 renal
[8] = test system: UACC-257 melanoma
[9] = test system: UO-31 renal
[10] = test system: M14 melanoma

Row | Structure (SMILES) | GI50 [1] [µM] | TGI [1] [µM] | GI50 [2] [µM] | TGI [2] [µM] | GI50 [3] [µM] | TGI [3] [µM] | GI50 [4] [µM] | TGI [4] [µM] | GI50 [5] [µM] | TGI [5] [µM] | GI50 [6] [µM] | TGI [6] [µM] | GI50 [7] [µM] | TGI [7] [µM] | GI50 [8] [µM] | TGI [8] [µM] | GI50 [9] [µM] | TGI [9] [µM] | GI50 [10] [µM] | TGI [10] [µM]
1 | COc1cc(OC)c(F)c(COc2cnc(Nc3cnn(CCO)c3)nc2)c1F | 1.37 | > 100 | 0.177 | > 100 | 0.36 | 4.31 | 0.526 | > 22.6 | 0.444 | > 100 | 0.617 | > 100 | 0.188 | 2.44 | 1.45 | > 100 | 0.556 | > 20.5 | – | –
2 | CCCCCCCCNC(C)C(O)c1ccc(SC(C)C)cc1 (stereo not given) | – | – | 1.82 | 3.33 | 0.654 | 1.91 | 1.54 | 2.92 | 1.85 | 3.56 | 1.79 | 3.25 | 1.45 | 2.81 | – | – | 1.77 | 3.32 | 1.72 | 3.26
3 | CN1C(=O)CCC1c1ccc2c(c1)oc(=O)n2C (stereo not given) | – | > 100 | – | – | – | > 100 | – | > 100 | – | > 100 | – | > 100 | – | > 100 | – | > 100 | – | > 100 | – | > 100
4 | Oc1ccc2ccccc2c1N=Nc1ccc(Cl)cc1 | – | > 100 | – | > 100 | – | > 100 | – | 78.7 | – | – | – | > 100 | – | > 100 | – | > 100 | – | > 100 | – | > 100
5 | COc1ccc(-n2cc(-c3cc(OC)c(OC)c(OC)c3)[nH]c2=S)cc1Cl | 65.5 | > 100 | 10.3 | 31.3 | > 100 | > 100 | 6.12 | > 100 | 18.9 | > 100 | 27.2 | > 100 | 17.6 | > 100 | > 100 | > 100 | 38.6 | > 100 | – | –
6 | O=C1c2cccc3c(Cl)ccc(c23)C(=O)N1CCCN1CCN(CCCN2C(=O)c3cccc4c(Cl)ccc(c34)C2=O)CC1 | – | > 100 | – | – | – | > 100 | – | > 100 | – | > 100 | – | > 100 | – | – | – | > 100 | – | > 100 | – | > 100
7 | O=S1c2ccccc2NC(c2ccc3ccccc3c2)CC1c1ccccc1 (stereo not given) | – | > 100 | – | – | – | 49.6 | – | 33.7 | – | 47.1 | – | 53.9 | – | 30.5 | – | > 100 | – | 47.9 | – | > 100
8 | COc1ccc(OC(C)C(=O)O)c2c1CCCC2=O (stereo not given) | – | > 100 | – | – | – | > 100 | – | > 100 | – | > 100 | – | > 100 | – | > 100 | – | > 100 | – | > 100 | – | > 100
9 | COc1ccc(-c2nc(-c3ccccn3)c(-c3ccccn3)n2CC(C)C)cc1OC1CCCC1 | 9.02 | 65.1 | 50 | > 165 | 35.3 | 134 | 26.1 | 110 | 32.1 | 99.7 | 32.3 | 126 | – | – | 26.2 | 95.3 | 7.43 | 142 | 22.7 | 114
10 | OCC(O)COc1c(Cl)cc(Cl)cc1Cl (stereo not given) | – | > 100 | – | – | – | > 100 | – | > 74.1 | – | > 100 | – | > 100 | – | > 100 | – | > 100 | – | > 100 | – | > 100
11 | Cc1cccc(C(C)C)c1NC(=O)CCl | – | > 100 | – | – | – | > 100 | – | > 100 | – | > 100 | – | 76.6 | – | 75.5 | – | > 100 | – | > 100 | – | > 100
12 | Cc1cc(NCc2cc(Nc3ccnc4cc(Cl)ccc34)ccc2F)nc(N2CCSCC2)n1 | 2.92 | 21.8 | – | – | 1.77 | 4.37 | 1.47 | 2.79 | – | – | 1.82 | 5.51 | 1.52 | 3.35 | – | – | 1.38 | 2.87 | – | –
13 | C=C1CCC2C(C)(CO)C(O)CCC2(C)C1C/C=C1/CCOC1=O (stereo not given) | – | > 100 | – | – | – | > 100 | – | > 100 | – | > 100 | – | > 100 | – | – | – | > 100 | – | > 100 | – | > 100
14 | CC(C)CN1CC(C)C(=O)NC1=O (stereo not given) | – | > 100 | – | – | – | > 100 | – | > 100 | – | > 100 | – | > 100 | – | > 100 | – | > 100 | – | > 100 | – | –
15 | COc1cc2cnc(-c3ccccc3)cc2cc1OC | – | 85.3 | – | 68.6 | – | 45.5 | – | – | – | > 100 | – | 82 | – | > 100 | – | 53.3 | – | > 100 | – | > 100
16 | CCOc1cc2c(=O)oc3c(OC)ccc4ccc(c1OC)c2c43 | – | > 100 | – | – | – | > 100 | – | > 100 | – | > 100 | – | > 100 | – | > 100 | – | > 100 | – | > 100 | – | > 100
17 | CCC(C)c1cccc(C)c1NC(=O)C(=O)Cc1nc2ccccc2s1 (stereo not given) | – | > 100 | – | – | – | > 100 | – | > 100 | – | > 100 | – | > 100 | – | > 100 | – | > 100 | – | > 100 | – | > 100
18 | Cc1ccc(/C=C/C(=O)c2ccc([N+](=O)[O-])cc2)cc1 | – | > 100 | – | – | – | > 100 | – | > 100 | – | > 100 | – | > 100 | – | > 100 | – | > 100 | – | > 100 | – | > 100
19 | CN(C)C(=S)/N=c1\ss/c(=N\C(=S)N(C)C)n1Cc1ccco1 | – | > 100 | – | – | – | – | – | – | – | > 100 | – | > 100 | – | > 100 | – | > 100 | – | > 100 | – | > 100
20 | O=C1CCNC(=O)NC1 | – | > 100 | – | – | – | > 100 | – | > 100 | – | > 100 | – | > 100 | – | > 100 | – | > 100 | – | > 100 | – | > 100
21 | NC(CCc1ncc(-c2ccccc2)s1)C(=O)O (stereo not given) | – | > 100 | – | – | – | > 100 | – | > 100 | – | > 100 | – | – | – | > 100 | – | > 100 | – | > 100 | – | > 100
